For one substance, hemolysis results are on record in patent US11446238B2, “Injectable dendrimer hydrogel nanoparticles” (Wayne State University, priority 2010, dated 2022).

The data set relates to Red blood cell (RBC). The data set can be described thus: Red blood cell lysis (hemolysis). The following applies: 1% Triton X-100, positive control.

On to Triton X-100, for which the hemolysis came out at 100%.
